Measured values published in patent publication US20100331348A1, “TROPANE DERIVATIVES USEFUL AS PESTICIDES” (SYNGENTA CROP PROTECTION, INC., priority 2007, published 2010).

Legend:
[1] = test system: Erysiphe graminis f.sp. tritici; assay: Erysiphe graminis f.sp. tritici (wheat powdery mildew) leaf disk assay; assay type: in vivo; details: Blumeria graminis, foliar, 96 h, preventive, four days after inoculation, read-out: control of fungal infection, Erysiphe graminis fsp. tritici
[2] = test system: Puccinia recondita f.sp. tritici; assay: Puccinia recondita f.sp. tritici (wheat brown rust) leaf disk assay; assay type: in vivo; details: foliar, 216 h, preventive, nine days after inoculation, read-out: control of fungal infection, Puccinia recondita f.sp. tritici

| SMILES | pest or weed control at 200 ppm [1] | pest or weed control at 200 ppm [2] |
| --- | --- | --- |
| CCc1ncnc(N2C3CCC2CC(=NOCc2ccccc2I)C3)c1Cl [Example 5.46] | ≥ 80% | ≥ 80% |
| COCc1ncnc(N2[C@@H]3CC[C@H]2CC(Oc2cccc(C(F)(F)F)n2)C3)c1OC (stereo partly shown) [Example 2.137] | ≥ 80% | ≥ 80% |
| CCc1ncnc(N2C3CCC2CC(=NOCc2cc(F)cc(F)c2F)C3)c1Cl [Example 5.80] | ≥ 80% | ≥ 80% |
| Fc1c(F)c(F)c(CON=C2CC3CCC(C2)N3c2ncnc3sccc23)c(F)c1F [Example 5.225] | ≥ 80% | ≥ 80% |
| CSc1nc(Cl)c(-c2ccccc2)c(ON=C2CC3CCC(C2)N3c2ncnc3sccc23)n1 [Example 5.254] |  | ≥ 80% |
| C#CCN(CC#C)C1C[C@H]2CC[C@@H](C1)N2c1ncnc2sccc12 (stereo partly shown) [Example 4.15] |  | ≥ 80% |
| CCc1ncnc(N2C3CCC2CC(=NOCc2cc(C)ccc2C)C3)c1Cl [Example 5.47] | ≥ 80% | ≥ 80% |
| Cn1cc(C(=O)N2[C@@H]3CC[C@H]2CC(Oc2cccc(C(F)(F)F)n2)C3)c(C(F)(F)F)c1 (stereo partly shown) [Example 2.197] |  | ≥ 80% |
| CCc1ncnc(N2C3CCC2CC(=NOCc2cc(C)cc(C)c2)C3)c1Cl [Example 5.11] |  | ≥ 80% |
| CN(C)c1cc(C(F)(F)F)nc(ON=C2CC3CCC(C2)N3c2ncnc3sccc23)n1 [Example 5.130] | ≥ 80% |  |
| CCc1ncnc(N2C3CCC2CC(=NOCc2cc(Br)cc(Br)c2)C3)c1Cl [Example 5.53] | ≥ 80% |  |
| CCOc1cc(C)ccc1OC1C[C@H]2CC[C@@H](C1)N2c1ncnc(CC)c1Cl (stereo partly shown) [Example 2.126] | ≥ 80% |  |
| CCc1ncnc(N2C3CCC2CC(=NOCc2cc(F)ccc2Br)C3)c1Cl [Example 5.83] |  | ≥ 80% |
| CCc1ncnc(N2C3CCC2CC(=NOCc2ccc(Cl)c(Cl)c2)C3)c1Cl [Example 5.52] | ≥ 80% |  |
| CCc1ncnc(N2[C@@H]3CC[C@H]2CC(Oc2ccc(C4CCc5ccccc54)cc2)C3)c1Cl (stereo partly shown) [Example 2.173] | ≥ 80% |  |
| ON=C1CC2CCC(C1)N2c1ncnc2sccc12 [Example 5.127] | ≥ 80% |  |
| Cc1c(Cl)ncnc1N1[C@@H]2CC[C@H]1CC(Oc1cccc(C(F)(F)F)n1)C2 (stereo partly shown) [Example 2.94] | ≥ 80% |  |
| Fc1c(F)c(F)c(OC2C[C@H]3CC[C@@H](C2)N3c2ncnc3sccc23)c(F)c1F (stereo partly shown) [Example 2.38] | ≥ 80% |  |
| CSc1ccc(OC2C[C@H]3CC[C@@H](C2)N3c2ncnc3sccc23)cc1C (stereo partly shown) [Example 2.41] | ≥ 80% |  |
| CCc1ncnc(N2[C@@H]3CC[C@H]2CC(Oc2cccc(F)c2)C3)c1Cl (stereo partly shown) [Example 2.117] | ≥ 80% |  |
| CCc1nc(Cl)c(C)c(ON=C2CC3CCC(C2)N3c2ncnc3sccc23)n1 [Example 5.171] | ≥ 80% |  |
| CCc1ncnc(N2[C@@H]3CC[C@H]2CC(Oc2ccc(Br)cc2C)C3)c1Cl (stereo partly shown) [Example 1.180] | ≥ 80% |  |
| c1ccc(-c2nnco2)c(OC2C[C@H]3CC[C@@H](C2)N3c2ncnc3sccc23)c1 (stereo partly shown) [Example 2.68] | ≥ 80% |  |
| CC(NC(=O)CC1CC2CCC(C1)N2c1ncnc2sccc12)c1ccccc1 (stereo not shown) [Example 7.13] |  | ≥ 80% |

| SMILES | pest or weed control at 200 ppm [1] | pest or weed control at 200 ppm [2] |
| --- | --- | --- |
| Cc1nc(ON=C2CC3CCC(C2)N3c2ncnc3sccc23)cc(N(C)C)n1 [Example 5.209] | ≥ 80% |  |
| Cc1cc(Cl)nc(CON=C2CC3CCC(C2)N3c2ncnc3sccc23)n1 [Example 5.132] | ≥ 80% |  |
| CCc1ncnc(N2[C@@H]3CC[C@H]2CC(Oc2c(C(C)=O)cc(Cl)c4ccccc24)C3)c1Cl (stereo partly shown) [Example 2.187] | ≥ 80% |  |
| FC(F)(F)c1ccc(Cl)c(CON=C2CC3CCC(C2)N3c2ncnc3sccc23)c1 [Example 5.195] | ≥ 80% |  |
| CCc1ncnc(N2[C@@H]3CC[C@H]2CC(Oc2ccc(Oc4nc(C)ns4)cc2)C3)c1Cl (stereo partly shown) [Example 2.91] | ≥ 80% |  |
| CCc1ncnc(N2C3CCC2CC(=CC(=O)NC(C)c2ccccc2)C3)c1Cl (stereo not shown) [Example 3.10] |  | ≥ 80% |
| CCc1ncnc(N2[C@@H]3CC[C@H]2CC(Oc2ccccc2-c2nnc(C(C)(C)C)o2)C3)c1Cl (stereo partly shown) [Example 2.190] | ≥ 80% |  |
| CC(C)(C)c1ccc(OC2C[C@H]3CC[C@@H](C2)N3c2ncnc3sccc23)c(C(C)(C)C)c1 (stereo partly shown) [Example 2.45] | ≥ 80% |  |
| CCc1ncnc(N2[C@@H]3CC[C@H]2CC(Oc2cccc(Oc4nc(C)ns4)c2)C3)c1Cl (stereo partly shown) [Example 2.89] | ≥ 80% |  |
| CCC(=O)c1cc(F)c(OC2C[C@H]3CC[C@@H](C2)N3c2ncnc(CC)c2Cl)c(F)c1 (stereo partly shown) [Example 2.207] | ≥ 80% |  |
| Cc1ccc(-c2nc(Cl)c(C)c(OC3C[C@H]4CC[C@@H](C3)N4c3ncnc4sccc34)n2)cc1 (stereo partly shown) [Example 1.97] | ≥ 80% |  |
| FC(F)(F)c1ccnc(OC2C[C@H]3CC[C@@H](C2)N3c2ccnc3cc(Cl)ccc23)c1 (stereo partly shown) [Example 2.192] | ≥ 80% |  |
| CCc1ncnc(N2C3CCC2CC(=NOCc2cc(F)c(F)c(C(F)(F)F)c2)C3)c1Cl [Example 5.103] | ≥ 80% |  |
| COCc1ncnc(N2[C@@H]3CC[C@H]2CC(Oc2cc(C(F)(F)F)ccn2)C3)c1OC (stereo partly shown) [Example 2.152] | ≥ 80% |  |
| CCc1ncnc(N2C3CCC2CC(=NOCc2c4ccccc4cc4ccccc24)C3)c1Cl [Example 5.9] | ≥ 80% |  |
| c1cc(OC2C[C@H]3CC[C@@H](C2)N3c2ncnc3sccc23)ccn1 (stereo partly shown) [Example 2.7] | ≥ 80% |  |
| CCC(C)c1cccc(C(C)CC)c1OC1C[C@H]2CC[C@@H](C1)N2c1ncnc2sccc12 (stereo partly shown) [Example 2.46] | ≥ 80% |  |
| COc1ccccc1OC1C[C@H]2CC[C@@H](C1)N2c1ncnc2sccc12 (stereo partly shown) [Example 2.4] | ≥ 80% |  |
| N#Cc1ccccc1-c1ccc(CON=C2CC3CCC(C2)N3c2ncnc3sccc23)cc1 [Example 5.206] |  | ≥ 80% |
| c1nc(C2C[C@H]3CC[C@@H](C2)N3c2ncnc3sccc23)c2ccsc2n1 (stereo partly shown) [Example 2.28] | ≥ 80% |  |
| CCc1ncnc(N2C3CCC2CC(=NOCc2cc(Cl)ccc2Cl)C3)c1Cl [Example 5.62] | ≥ 80% |  |
| CCc1ncnc(N2C3CCC2CC(=NOc2cc(Oc4ccccc4)ncn2)C3)c1Cl [Example 5.108] | ≥ 80% |  |
| CC(C)(C)CC(C)(C)c1ccc(OC2C[C@H]3CC[C@@H](C2)N3c2ncnc3sccc23)cc1 (stereo partly shown) [Example 2.35] | ≥ 80% |  |
| Cc1ccc(OC2C[C@H]3CC[C@@H](C2)N3c2ncnc3sccc23)cc1 (stereo partly shown) [Example 2.8] | ≥ 80% |  |

| SMILES | pest or weed control at 200 ppm [1] | pest or weed control at 200 ppm [2] |
| --- | --- | --- |
| C#CCON=C1CC2CCC(C1)N2c1ncnc(C(C)c2ncnc(CC)c2Cl)c1Cl (stereo not shown) [Example 5.49] | ≥ 80% |  |
| CCCOC(=O)c1ccc(OC2C[C@H]3CC[C@@H](C2)N3c2ncnc3sccc23)cc1 (stereo partly shown) [Example 2.226] |  | ≥ 80% |
| FC(F)(F)c1cc(CON=C2CC3CCC(C2)N3c2ncnc3sccc23)cc(C(F)(F)F)c1 [Example 5.186] | ≥ 80% |  |
| O=C(Cc1ccccc1)c1ccc(OC2C[C@H]3CC[C@@H](C2)N3c2ncnc3sccc23)cc1 (stereo partly shown) [Example 1.257] |  | ≥ 80% |
| CCc1ncnc(N2[C@@H]3CC[C@H]2CC(Oc2ccc(C(C)(C)c4ccc(O)cc4)cc2)C3)c1Cl (stereo partly shown) [Example 2.131] | ≥ 80% |  |
| CCc1nc(Cl)c(CC)c(ON=C2CC3CCC(C2)N3c2ncnc3sccc23)n1 [Example 5.194] | ≥ 80% |  |
| CCc1ncnc(N2[C@@H]3CC[C@H]2CC(Oc2ccc(C)cc2)C3)c1Cl (stereo partly shown) [Example 1.162] | ≥ 80% |  |
| C(#Cc1ccccc1)CC=C1CC2CCC(C1)N2c1ncnc2sccc12 [Example 3.26] |  | ≥ 80% |
| CCc1ncnc(N2C3CCC2CC(=NOCc2cc(F)cc(C(F)(F)F)c2)C3)c1Cl [Example 5.96] | ≥ 80% |  |
| CCCCCCOc1ccc(OC2C[C@H]3CC[C@@H](C2)N3c2ncnc(CC)c2Cl)cc1 (stereo partly shown) [Example 1.140] | ≥ 80% |  |
| CCCON=C1CC2CCC(C1)N2c1ccnc2c1c(C)nn2C [Example 5.244] | ≥ 80% |  |
| CCCNC(=O)CC1CC2CCC(C1)N2c1ncnc(CC)c1Cl (stereo not shown) [Example 7.30] |  | ≥ 80% |
| Fc1ccc(OC2C[C@H]3CC[C@@H](C2)N3c2ncnc3sccc23)cc1 (stereo partly shown) [Example 2.11] | ≥ 80% |  |
| CCc1ncnc(C(C)c2ncnc(N3C4CCC3CC(=NOCc3ccc(F)cc3)C4)c2Cl)c1Cl (stereo not shown) [Example 5.102] | ≥ 80% |  |
| CCc1ncnc(N2C3CCC2CC(=NOc2cc(OC)nc(OC)n2)C3)c1Cl [Example 5.97] | ≥ 80% |  |
| CCc1ncnc(N2C3CCC2CC(=NOc2cc(C)nc(SC)n2)C3)c1Cl [Example 5.94] | ≥ 80% |  |
| CCc1ncnc(N2C3CCC2CC(CC(=O)NC(C)c2ccccc2)C3)c1Cl (stereo not shown) [Example 7.31] |  | ≥ 80% |
| COc1ccc(OC2C[C@H]3CC[C@@H](C2)N3c2ncnc3sccc23)c(Cl)c1 (stereo partly shown) [Example 2.16] | ≥ 80% |  |
| CC(C)(C)c1ccc(OC2C[C@H]3CC[C@@H](C2)N3c2ncnc3sccc23)cc1 (stereo partly shown) [Example 2.26] | ≥ 80% |  |
| CCc1ncnc(N2C3CCC2CC(=NOCc2cccc(OC(F)(F)F)c2)C3)c1Cl [Example 5.75] | ≥ 80% |  |
| COc1cc(OC2C[C@H]3CC[C@@H](C2)N3c2ncnc3sccc23)cc(OC)c1OC (stereo partly shown) [Example 1.13] | ≥ 80% |  |
| CCc1ncnc(N2[C@@H]3CC[C@H]2CC(Oc2cc(Cl)c(Cl)cc2Cl)C3)c1Cl (stereo partly shown) [Example 1.196] | ≥ 80% |  |
| CC(=O)CCc1ccc(OC2C[C@H]3CC[C@@H](C2)N3c2ncnc3sccc23)cc1 (stereo partly shown) [Example 2.40] |  | ≥ 80% |
